# Reference: patent US20230405031A1, “METHODS AND COMPOSITIONS RELATED TO RECEPTOR-MEDIATED GLUCOSE SENSING” (Ohio State Innovation Foundation, priority 2020, published 2023)
# Legend:
# ERK2 phosphorylation = ERK2 phosphorylation in gastrocnemius after intramuscular injection of STR ligands; assay type: in vivo; conditions: intra-muscular injection, anesthetized mice after overnight fast, WT vs T1R2-KO, vs vehicle in contralateral muscle
# Experimental: FIGS. 8A-8E show STR signaling involves ERK2 and SIRT1 activation. (8A) ERK1/2 phosphorylation in gastrocnemius from fed mice. Quantitation includes both ERK1 and ERK2 bands (n=6/group). (8B-8C) ERK2 phosphorylation in response to bilateral intramuscular injection of either sucralose or 3-OMG (right gastroc) or vehicle (left gastroc) in anesthetized mice after an overnight fast (n=8/group). (8D) NAD levels in C2C12 cells culture in high (black dots) or low (blue dots) glucose for 54 h. In select cells, equal molarity (20 mM) of glucose (Glu) or 3-OMG was added during the last 6 h (ANOVA). (8E) PGC1a acetylation in gastrocnemius from 5 hours fasted mice using immunoprecipitation (IP) with anti-PGC1a (Millipore ST1202) and then immunoblotting (IB) with anti-PGC1a and anti-acetyl-lysine (CST #9441). IB of PGC1a is shown in input. Student's T-test, p value. Elucidation of signaling pathway leading to PARP1 regulation and NAD^+ bioavailability. The reduced PARP1 activity in T1R2-KO muscles correlates with substantial increases in NAD^+ levels (FIGS. 2C and 3B). STR belong to the Gq family of GPCRs and, in various tissues, activate phospholipase C (PLC)-mediated signaling cascades (9, 62) (FIG. 7). PARP1 is mainly regulated in response to DNA damage (63), but it was reasoned that a downstream effector(s) of PLC-dependent pathway may regulate PARP1 in skeletal muscle. […]
# C2C12 cells = assay: NAD levels in differentiated C2C12 cells cultured at high or low glucose; assay type: cell-based; conditions: 20 mM added during the last 6 h to low-glucose (5 mM) cultured differentiated C2C12 cells, 54 h culture
# Experimental: FIGS. 8A-8E show STR signaling involves ERK2 and SIRT1 activation. (8A) ERK1/2 phosphorylation in gastrocnemius from fed mice. Quantitation includes both ERK1 and ERK2 bands (n=6/group). (8B-8C) ERK2 phosphorylation in response to bilateral intramuscular injection of either sucralose or 3-OMG (right gastroc) or vehicle (left gastroc) in anesthetized mice after an overnight fast (n=8/group). (8D) NAD levels in C2C12 cells culture in high (black dots) or low (blue dots) glucose for 54 h. In select cells, equal molarity (20 mM) of glucose (Glu) or 3-OMG was added during the last 6 h (ANOVA). (8E) PGC1a acetylation in gastrocnemius from 5 hours fasted mice using immunoprecipitation (IP) with anti-PGC1a (Millipore ST1202) and then immunoblotting (IB) with anti-PGC1a and anti-acetyl-lysine (CST #9441). IB of PGC1a is shown in input. Student's T-test, p value. Determination of downstream effectors of NAD^+-SIRT axis. To shed light on the link between STR activation and NAD regulation, differentiated C2C12 cells were cultured at high (25 mM) or low (5 mM) glucose for 54 hours and observed an anticipated increase in NAD levels during the low-glucose condition (FIG. 8D) (18, 69). […] Thus, it appears that a STR-mediated regulation of NAD^+-SIRT axis is sufficient to account for key muscle adaptations in T1R2-KO mice. […]
# SIRT1 = target: T1, SIRT1 (Homo sapiens, UniProt Q96EB6); conditions: read-out: Km (affinity for NAD+); cited from earlier work
# T1 sequence (Q96EB6 1-747): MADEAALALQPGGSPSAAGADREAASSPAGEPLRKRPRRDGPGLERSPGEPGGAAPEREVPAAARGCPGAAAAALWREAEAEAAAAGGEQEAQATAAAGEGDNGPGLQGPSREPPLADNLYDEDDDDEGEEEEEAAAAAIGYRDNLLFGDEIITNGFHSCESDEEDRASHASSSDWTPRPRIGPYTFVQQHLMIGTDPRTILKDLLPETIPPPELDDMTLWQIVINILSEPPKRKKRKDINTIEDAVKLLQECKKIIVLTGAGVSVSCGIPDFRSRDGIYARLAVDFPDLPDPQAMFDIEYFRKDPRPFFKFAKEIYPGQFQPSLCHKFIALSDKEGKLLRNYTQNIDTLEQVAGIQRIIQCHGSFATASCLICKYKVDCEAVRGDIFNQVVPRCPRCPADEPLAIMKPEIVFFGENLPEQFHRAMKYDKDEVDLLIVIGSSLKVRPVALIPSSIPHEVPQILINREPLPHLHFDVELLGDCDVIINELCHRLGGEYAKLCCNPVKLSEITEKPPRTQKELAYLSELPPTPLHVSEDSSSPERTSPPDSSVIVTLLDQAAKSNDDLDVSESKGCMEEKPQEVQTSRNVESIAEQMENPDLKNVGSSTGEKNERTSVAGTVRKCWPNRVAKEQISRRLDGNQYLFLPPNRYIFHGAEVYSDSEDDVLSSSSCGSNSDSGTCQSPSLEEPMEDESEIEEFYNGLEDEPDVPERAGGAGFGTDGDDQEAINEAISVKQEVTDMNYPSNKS
# SIRT2 = target: T2, SIRT2 (Homo sapiens, UniProt Q8IXJ6); conditions: read-out: Km (affinity for NAD+); cited from earlier work
# T2 sequence (Q8IXJ6 1-389): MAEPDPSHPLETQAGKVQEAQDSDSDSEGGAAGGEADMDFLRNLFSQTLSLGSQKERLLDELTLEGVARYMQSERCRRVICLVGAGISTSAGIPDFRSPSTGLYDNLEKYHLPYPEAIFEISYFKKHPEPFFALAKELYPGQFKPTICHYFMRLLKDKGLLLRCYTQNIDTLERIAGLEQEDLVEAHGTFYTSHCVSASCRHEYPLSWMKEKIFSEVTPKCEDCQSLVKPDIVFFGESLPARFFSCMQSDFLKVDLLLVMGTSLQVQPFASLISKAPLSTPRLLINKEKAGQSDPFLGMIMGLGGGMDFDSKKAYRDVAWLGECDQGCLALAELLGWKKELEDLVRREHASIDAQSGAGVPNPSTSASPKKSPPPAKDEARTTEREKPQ
# muscle fibers = assay: Oxygen flux in permeabilized muscle fibers (high resolution respirometry); set-up: species or system mice; conditions: after malate+pyruvate and ADP, data not shown
# Source text: FIGS. 4A-4H show STRs regulate mitochondrial function and exercise capacity. (4A) Oxygen flux in muscle fibers in response to malate+pyruvate and ADP. […] (4B) Oxygen consumption rate (OCR) in differentiated myoblasts. Oligomycin (Comp V inhibition), FCCP (Carbonyl cyanide-4 (trifluoromethoxy) phenylhydrazone; uncoupler), rotenone (Comp I inhibition) (n=5/group). (4C) Quantitative analysis of lactate, ATP and ADP in gastrocnemius following 5-hours fasting (n=9-11/group). (4D) Succinate dehydrogenase staining in muscle sections. Arrows show SDH staining in gastrocnemius n=6/group). (4E) Immunoblotting of mitochondrial complex proteins with quantitation (n=6/group). (4F) Exercise endurance in mice at […] grade and 20 m/min (n=8/group). (4G) Oxygen consumption and (4H) respiratory exchange ratio (RER) under steady state conditions (plateaued values for at least 10 min) before exhaustion in mice subjected to a submaximal exercise bout as in (4F). Student's t-test, p value for (4B-4H).
# ADPr is converted to PRPP, which can be used either for NAD^+ regeneration (salvage pathway), or for nucleotide synthesis (FIG. 2F), showing that ADPr can be a metabolic link between NAD^+ and purine/pyrimidine metabolism. Therefore, it was reasoned that the unprecedented depletion of ADPr in T1R2-KO muscles can be due to reduced NAD-consumption and/or increased PRPP utilization for nucleotide biosynthesis. […]
compound,measurement,setting,value
OC[C@H]1O[C@H](O[C@]2(CCl)O[C@H](CCl)[C@@H](O)[C@@H]2O)[C@H](O)[C@@H](O)[C@H]1Cl [sucralose],ERK2 phosphorylation,ERK2 phosphorylation,"activated ERK2 phosphorylation in WT, but not in T1R2-KO muscles"
"CO[C@@H]([C@H](O)[C@H](O)CO)[C@@H](O)C=O [3-OMG, 3-O-methylglucose]",ERK2 phosphorylation,ERK2 phosphorylation,"activated ERK2 phosphorylation in WT, but not in T1R2-KO muscles"
same,NAD levels,C2C12 cells,"caused a significant drop in NAD, although to a lesser extent than 20 mM glucose"
"NC(=O)c1ccc[n+]([C@@H]2O[C@H](COP(=O)([O-])OP(=O)(O)OC[C@H]3O[C@@H](n4cnc5c(N)ncnc54)[C@H](O)[C@@H]3O)[C@@H](O)[C@H]2O)c1 [NAD^+, Nicotinamide adenine dinucleotide]",Km,SIRT1,95 µM
same,Km,SIRT2,83 µM
antimycin A,Oxygen flux,muscle fibers,suppressed oxygen flux
